In US20230131248A1, “A SKIN TEST PLATFORM FORMED FROM A COMPOSITE MATERIAL” (Nanyang Technological University, priority 2020, published 2023):

Test: Penetration of niacinamide and glycerin into silk artificial epidermis (cross-sectional Raman spectroscopy)
Format: in vitro ADME
Settings: applied on surface for 30 min and 4 h
Procedure: LabRAM Soleil™ Raman spectroscopy was used to measure the penetration of compounds into the silk film. The silk artificial epidermis was first immersed in water for 10 min. Then, the silk artificial epidermis was taken out and wiped with a wiper to remove surface water. Next, niacinamide or glycerin was applied on the surface of the silk artificial epidermis and left to sit for 30 min or 4 h. Finally, the resultant sample was taken for cross-sectional Raman spectroscopy to determine the penetration of the chemicals into silk artificial epidermis.

Row | Compound | penetration depth into silk artificial epidermis
1 | NC(=O)c1cccnc1 [niacinamide] | penetrate into half-depth
2 | OCC(O)CO [glycerin] | penetrate into half-depth
